The source of these data is patent publication US8269000B2, “Substituted pyrimidine and triazine compounds” (Gruenenthal GmbH, priority 2008, dated 2012).

The target of the first assay is T1, rat B1R (Rattus norvegicus, UniProt P97583).
T1 construct: expressed in transfected cells; host or cells: CHO K1 cells
T1 sequence (P97583 1-337): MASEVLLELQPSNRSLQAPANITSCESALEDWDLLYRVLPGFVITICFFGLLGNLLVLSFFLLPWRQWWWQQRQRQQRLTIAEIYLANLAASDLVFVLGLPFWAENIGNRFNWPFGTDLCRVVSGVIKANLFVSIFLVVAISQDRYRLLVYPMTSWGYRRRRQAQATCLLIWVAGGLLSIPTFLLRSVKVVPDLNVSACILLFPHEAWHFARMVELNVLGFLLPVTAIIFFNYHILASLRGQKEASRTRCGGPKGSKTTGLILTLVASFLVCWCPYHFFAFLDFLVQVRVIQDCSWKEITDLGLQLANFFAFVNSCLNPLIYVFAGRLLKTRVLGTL
In words: FLIPR Ca2+ functional study on bradykinin receptor 1 (rB1R CHO K1 cells). The class given is cell-based. The note with it: % inhibition rat B1R at 10 μM. The gist of the method: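 Antagonism was calculated as % of maximal inhibition of the Ca2+ rise triggered by agonist at EC80 (Lys-Des-Arg9-bradykinin for hB1R, Des-Arg9-bradykinin for rB1R), added 10-20 min after test compound (10 μM or serial dilutions for IC50) to Fluo-4-loaded transfected CHO K1 cells on FLIPR. Duplicates or triplicates, ≥2 independent runs.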
Take `COc1cc(C)c(S(=O)(=O)N2CC(Oc3ccnc(N(C)CCN4CCC(c5ccccc5)(N5CCCC5)CC4)n3)C2)c(C)c1` [H_CC-070]: the “% inh. (rat B1R) 10 μM” value is 53%.

Still in this assay, the particulars now being: CHO-K1, % inhibition rat B1R at 10 μM, read-out: % inh. (rat B1R) 10 μM.
As for `COc1cc(C)c(S(=O)(=O)N2CCC[C@H]2COc2ccnc(N(C)CCN3CCC(Oc4ccncc4)CC3)n2)c(C)c1` [H_CC-051, [4-[[(2S)-1-[(4-methoxy-2,6-dimethyl-phenyl)sulfonyl]-pyrrolidin-2-yl]-methoxy]-pyrimidin-2-yl]-methyl-[2-(4-pyridin-4-yloxy-piperidin-1-yl)-ethyl]amine], the inhibition at 10 µM amounted to 99%. As to `CCCCC1(N(C)C)CCN(CCN(C)c2nccc(OC3CCCN(S(=O)(=O)c4c(C)cc(OC)cc4C)C3)n2)CC1` (centres unmarked) [H_CC-053, 2-(4-butyl-4-dimethylamino-piperidin-1-yl)-ethyl-[4-[1-[(4-methoxy-2,6-dimethyl-phenyl)sulfonyl]-piperidin-3-yl]oxy-pyrimidin-2-yl]-methyl-amine], the inhibition at 10 µM was 95%. As to `COc1cc(C)c(S(=O)(=O)N2CCC[C@H]2COc2ccnc(N(C)CCN3CCC(c4ccccc4)(N(C)C)CC3)n2)c(C)c1` [H_CC-054, 2-(4-dimethylamino-4-phenyl-piperidin-1-yl)-ethyl-[4-[[(2S)-1-[(4-methoxy-2,6-dimethyl-phenyl)sulfonyl]-pyrrolidin-2-yl]-methoxy]-pyrimidin-2-yl]-methyl-amine], the inhibition at 10 µM was found to be 83%. Regarding `COc1cc(C)c(S(=O)(=O)N2CCC[C@H]2COc2ccnc(N(C)CCN3CCC(c4ccccc4)(N4CCCC4)CC3)n2)c(C)c1` [H_CC-055, [4-[[(2S)-1-[(4-methoxy-2,6-dimethyl-phenyl)sulfonyl]-pyrrolidin-2-yl]-methoxy]-pyrimidin-2-yl]-methyl-[2-(4-phenyl-4-pyrrolidin-1-yl-piperidin-1-yl)-ethyl]-amine], the inhibition at 10 µM was 92%. `CCCCC1(N(C)C)CCN(CCN(C)c2nccc(OC[C@@H]3CCCN3S(=O)(=O)c3c(C)cc(OC)cc3C)n2)CC1` [H_CC-056, 2-(4-butyl-4-dimethylamino-piperidin-1-yl)-ethyl-[4-[[(2S)-1-[(4-methoxy-2,6-dimethyl-phenyl)sulfonyl]-pyrrolidin-2-yl]-methoxy]-pyrimidin-2-yl]-methyl-amine]: the inhibition at 10 µM came out at 98%. On the same count and under the same terms, to `COc1cc(C)c(S(=O)(=O)N2c3ccccc3C[C@H]2COc2ccnc(N(C)CCN3CCC(c4ccccc4)(N(C)C)CC3)n2)c(C)c1` [H_CC-057, 2-(4-dimethylamino-4-phenyl-piperidin-1-yl)-ethyl-[4-[[(2S)-1-[(4-methoxy-2,6-dimethyl-phenyl)sulfonyl]-2,3-dihydro-1H-indol-2-yl]-methoxy]-pyrimidin-2-yl]-methyl-amine] belongs 98%; to `CCCCC1(N(C)C)CCN(CCN(C)c2nccc(OC[C@@H]3Cc4ccccc4N3S(=O)(=O)c3c(C)cc(OC)cc3C)n2)CC1` [H_CC-058, 2-(4-butyl-4-dimethylamino-piperidin-1-yl)-ethyl-[4-[[(2S)-1-[(4-methoxy-2,6-dimethyl-phenyl)sulfonyl]-2,3-dihydro-1H-indol-2-yl]-methoxy]-pyrimidin-2-yl]-methyl-amine], 97%. On the same count and under the same terms, the figure for `COc1cc(C)c(S(=O)(=O)N(C)CCOc2ccnc(N(C)CCN3CCC(c4ccccc4)(N4CCCC4)CC3)n2)c(C)c1` [H_CC-059, 4-methoxy-N,2,6-trimethyl-N-[2-[2-[methyl-[2-(4-phenyl-4-pyrrolidin-1-yl-piperidin-1-yl)-ethyl]-amino]-pyrimidin-4-yl]oxy-ethyl]-benzenesulfonic acid amide] is 91%. In the case of `CCCCC1(N(C)C)CCN(CCN(C)c2nccc(OCCN(C)S(=O)(=O)c3c(C)cc(OC)cc3C)n2)CC1` [H_CC-060, N-[2-[2-[2-(4-butyl-4-dimethylamino-piperidin-1-yl)-ethyl-methyl-amino]pyrimidin-4-yl]oxy-ethyl]-4-methoxy-N,2,6-trimethyl-benzenesulfonic acid amide], the inhibition at 10 µM was determined as 102%. On the same count and under the same terms, the figure for `COc1cc(C)c(S(=O)(=O)N2CCCCC2COc2ccnc(N(C)CCCN3CCC(c4ccccc4)(N(C)C)CC3)n2)c(C)c1` (centres unmarked) [H_CC-061, 3-(4-dimethylamino-4-phenyl-piperidin-1-yl)-propyl-[4-[[1-[(4-methoxy-2,6-dimethyl-phenyl)sulfonyl]-piperidin-2-yl]-methoxy]-pyrimidin-2-yl]-methyl-amine] is 105%; for `CCCCC1(N(C)C)CCN(c2nccc(OCC3CCCCN3S(=O)(=O)c3c(C)cc(OC)cc3C)n2)CC1` (centres unmarked) [H_CC-062, [4-butyl-1-[4-[[1-[(4-methoxy-2,6-dimethyl-phenyl)sulfonyl]-piperidin-2-yl]-methoxy]-pyrimidin-2-yl]-piperidin-4-yl]-dimethyl-amine] it is 73%.

As for `COc1cc(C)c(S(=O)(=O)N2CCCCC2COc2ccnc(N(C)CCN3CCC(c4ccccc4)(N4CCCC4)CC3)n2)c(C)c1` (centres unmarked) [H_CC-063, [4-[[1-[(4-methoxy-2,6-dimethyl-phenyl)sulfonyl]-piperidin-2-yl]-methoxy]-pyrimidin-2-yl]-methyl-[2-(4-phenyl-4-pyrrolidin-1-yl-piperidin-1-yl)-ethyl]-amine], the inhibition at 10 µM was 82%.

With `COc1cc(C)c(S(=O)(=O)N2CCCC(Oc3ccnc(N4CCC(c5ccccc5)(N(C)C)CC4)n3)C2)c(C)c1` (centres unmarked) [H_CC-064, [1-[4-[1-[(4-methoxy-2,6-dimethyl-phenyl)sulfonyl]-piperidin-3-yl]oxy-pyrimidin-2-yl]-4-phenyl-piperidin-4-yl]-dimethyl-amine], the inhibition at 10 µM was determined as 61%. With `COc1cc(C)c(S(=O)(=O)N2CCCC(Oc3ccnc(N(C)CCN4CCC(c5ccccc5)(N(C)C)CC4)n3)C2)c(C)c1` (centres unmarked) [H_CC-065, 2-(4-dimethylamino-4-phenyl-piperidin-1-yl)-ethyl-[4-[1-[(4-methoxy-2,6-dimethyl-phenyl)sulfonyl]-piperidin-3-yl]oxy-pyrimidin-2-yl]-methyl-amine], the inhibition at 10 µM was found to be 52%.

In the case of `COc1cc(C)c(S(=O)(=O)N2CCCC(Oc3ccnc(N(C)CCN4CCC(c5ccccc5)(N5CCCC5)CC4)n3)C2)c(C)c1` (centres unmarked) [H_CC-066, [4-[1-[(4-methoxy-2,6-dimethyl-phenyl)sulfonyl]-piperidin-3-yl]oxy-pyrimidin-2-yl]-methyl-[2-(4-phenyl-4-pyrrolidin-1-yl-piperidin-1-yl)-ethyl]amine], the inhibition at 10 µM amounted to 56%. Consider `COc1cc(C)c(S(=O)(=O)N(C)CCOc2ccnc(N(C)CCN3CCC(c4ccccc4)(N(C)C)CC3)n2)c(C)c1` [H_CC-067, N-[2-[2-[2-(4-dimethylamino-4-phenyl-piperidin-1-yl)-ethyl-methyl-amino]-pyrimidin-4-yl]oxy-ethyl]-4-methoxy-N,2,6-trimethyl-benzenesulfonic acid amide], for which the inhibition at 10 µM was 59%.

As for `CCCCC1(N(C)C)CCN(c2nccc(OC[C@@H]3CCCN3S(=O)(=O)c3c(C)cc(OC)cc3C)n2)CC1` [H_CC-068, [4-butyl-1-[4-[[(2S)-1-[(4-methoxy-2,6-dimethyl-phenyl)sulfonyl]-pyrrolidin-2-yl]-methoxy]-pyrimidin-2-yl]-piperidin-4-yl]-dimethyl-amine], the inhibition at 10 µM came out at 65%. The same measure, in the same setting: to `COc1cc(C)c(S(=O)(=O)N2CC(Oc3ccnc(N(C)CCN4CCC(c5ccccc5)(N(C)C)CC4)n3)C2)c(C)c1` [H_CC-069, 2-(4-dimethylamino-4-phenyl-piperidin-1-yl)-ethyl-[4-[1-[(4-methoxy-2,6-dimethyl-phenyl)sulfonyl]-azetidin-3-yl]oxy-pyrimidin-2-yl]-methyl-amine] belongs 52%. In the case of `CCCCC1(N(C)C)CCN(CCN(C)c2nccc(OC3CN(S(=O)(=O)c4c(C)cc(OC)cc4C)C3)n2)CC1` [H_CC-071, 2-(4-butyl-4-dimethylamino-piperidin-1-yl)-ethyl-[4-[1-[(4-methoxy-2,6-dimethyl-phenyl)sulfonyl]-azetidin-3-yl]oxy-pyrimidin-2-yl]-methyl-amine], the inhibition at 10 µM was determined as 55%.

Turning to `COc1cc(C)c(S(=O)(=O)N2c3ccccc3C[C@H]2COc2ccnc(N(C)CCN3CCC(c4ccccc4)(N4CCCC4)CC3)n2)c(C)c1` [H_CC-072, [4-[[(2S)-1-[(4-methoxy-2,6-dimethyl-phenyl)sulfonyl]-2,3-dihydro-1H-indol-2-yl]-methoxy]-pyrimidin-2-yl]-methyl-[2-(4-phenyl-4-pyrrolidin-1-yl-piperidin-1-yl)-ethyl]-amine], the inhibition at 10 µM came out at 83%. In the case of `COc1cc(C)c(S(=O)(=O)N2CCCC(Oc3ccnc(N(C)CCCN4CCC(c5ccccc5)(N(C)C)CC4)n3)C2)c(C)c1` (centres unmarked) [H_CC-073, 3-(4-dimethylamino-4-phenyl-piperidin-1-yl)-propyl-[4-[1-[(4-methoxy-2,6-dimethyl-phenyl)sulfonyl]-piperidin-3-yl]oxy-pyrimidin-2-yl]-methyl-amine], the inhibition at 10 µM turned out to be 55%.

Turning to `COc1cc(C)c(S(=O)(=O)N2CC(Oc3ccnc(N(C)CCCN4CCC(c5ccccc5)(N(C)C)CC4)n3)C2)c(C)c1` [H_CC-074, 3-(4-dimethylamino-4-phenyl-piperidin-1-yl)-propyl-[4-[1-[(4-methoxy-2,6-dimethyl-phenyl)sulfonyl]-azetidin-3-yl]oxy-pyrimidin-2-yl]-methyl-amine], the inhibition at 10 µM was determined as 59%.
